The target in data set [1] is T1, native rat mGluR2 (Rattus norvegicus, UniProt P31421).
T1 construct: from tissue; host or cells: cerebral cortex of Sprague-Dawley rats (membrane preparation)
As to the kind of experiment: [35S]GTPγS binding assay using cortical rat brain membranes, potentiation of a selective mGluR2 agonist. The format is biochemical. The note with it: rat cortical membranes; selective mGluR2 agonist such as LY379268; in the presence of 3 or 10 μM of positive allosteric modulator. The text has this:
The [^35S]GTPγS binding is a functional membrane-based assay used to study G-protein coupled receptor (GPCR) function. This method is using a binding assay to assess the initial step in receptor-mediated G protein activation in membranes prepared from cells expressing recombinant GPCR or using membranes from discrete area of the rat brain. In brief, the assay is measuring the activation of G proteins by catalyzing the exchange of guanosine 5′-diphosphate (GDP) by guanosine 5′-triphosphate (GTP) at the α subunit. The GTP-bounded G proteins dissociate into two subunits, Gα-GTP and Gβγ, which in turn regulate intracellular enzymes and ion channels. GTP is rapidly hydrolysed by the Gα-subunit (GTPases) and the G protein is deactivated and ready for new GTP exchange cycle (Harper (1998) Curr Protoc Pharmacol 2.6.1-10, John Wiley & Sons, Inc.). [^35S]GTPγS, a non-hydrolyzed analogue of GTP, is used for this purpose.
This method is widely used to study receptor activation of G protein in membranes prepared from rat brain tissue, including mGluR2 receptors (Schaffhauser et al 2003, Pinkerton et al, 2004). mGluR2 receptors are expressed in the rat brain cortex (Mutel et al (1998) J. Neurochem. 71:2558-64; Schaffhauser et al (1998) Mol. Pharmacol. 53:228-33) and are coupled to Gαi-protein, a preferential coupling for this method.
[^35S]GTPγS binding assay using cortical rat brain membranes preparation was used and adapted from Schaffhauser et al ((2003) Mol. Pharmacol. 4:798-810) for the detection of the positive allosteric modulator properties of the compounds of this invention on native rat mGluR2. In order to eliminate the possible interference with group III Gαi-protein coupled mGluRs (mGluR4, mGluR7, mGluR8; mGluR6 is not expressed in the cortex (Laurie et al (1997) Neuropharmacol. 36:145-52)), the potentiation of the response to a selective mGluR2 agonist, such as DCG-IV (Cartmell et al. (1998) Br. J. Pharmacol. 123(3):497-504) or LY379268 (Monn et al. (1999) J. Med. Chem 42:1027-40), by compounds described in the present invention was performed.
Membrane preparation. Cortices were dissected out from brains of 200-300 g Sprague-Dawley rats (Charles River Laboratories, L'Arbresle, France). Tissues were homogenized in 6 volumes (vol/wt) of 10% sucrose at 4° C. using a glass-teflon homogenizer. The homogenate was centrifuged at 1250 g for 10 min, and the supernatant was centrifuged at 40,000 g for 20 min (4° C.). The pellet was resuspended in 25 ml water using a Polytron disrupter (Kinematica AG, Luzern, Switzerland) and centrifuged for 10 min at 3000 g. (4° C.). The supernatant was centrifuged at 40,000 g for 20 min (4° C.). The supernatant was discarded and the pellet washed twice by resuspension in 10 volumes 5 mM HEPES-KOH, pH 7.4. The homogenate was frozen and thawed twice and centrifuged at 40,000 g for 20 min. The final pellet was resuspended in 5 mM HEPES-KOH, pH 7.4 and stored at −80° C. before its use. Protein concentration was determined by the Bradford method (Bio-Rad protein assay, Reinach, Switzerland) with bovine serum albumin as standard.
[^35S]GTPγS binding assay. Measurement of mGluR2 positive allosteric modulators properties in rat cortical membranes was performed as follows: rat cortical membrane (1.5 μg) were incubated in 96-well microplates for 15 min at 30° C. in assay buffer (50 mM HEPES pH 7.4, 100 mM NaCl, 5 mM MgCl2, 10 μM GDP, 10 μg/ml saponin, EGTA 0.2 mM) with increasing concentrations of positive allosteric modulator (from 1 nM to 10 μM) and a minimal concentration of DCG-IV or LY379268, a selective mGluR2 agonist, that has been determined in previous experiments and that corresponds to the EC20, a concentration that gives 20% of the maximal response of the agonist, and is in accordance to published data (Pin et al. (1999) Eur. J. Pharmacol. 375:277-294). […]

T1 sequence (P31421 19-872): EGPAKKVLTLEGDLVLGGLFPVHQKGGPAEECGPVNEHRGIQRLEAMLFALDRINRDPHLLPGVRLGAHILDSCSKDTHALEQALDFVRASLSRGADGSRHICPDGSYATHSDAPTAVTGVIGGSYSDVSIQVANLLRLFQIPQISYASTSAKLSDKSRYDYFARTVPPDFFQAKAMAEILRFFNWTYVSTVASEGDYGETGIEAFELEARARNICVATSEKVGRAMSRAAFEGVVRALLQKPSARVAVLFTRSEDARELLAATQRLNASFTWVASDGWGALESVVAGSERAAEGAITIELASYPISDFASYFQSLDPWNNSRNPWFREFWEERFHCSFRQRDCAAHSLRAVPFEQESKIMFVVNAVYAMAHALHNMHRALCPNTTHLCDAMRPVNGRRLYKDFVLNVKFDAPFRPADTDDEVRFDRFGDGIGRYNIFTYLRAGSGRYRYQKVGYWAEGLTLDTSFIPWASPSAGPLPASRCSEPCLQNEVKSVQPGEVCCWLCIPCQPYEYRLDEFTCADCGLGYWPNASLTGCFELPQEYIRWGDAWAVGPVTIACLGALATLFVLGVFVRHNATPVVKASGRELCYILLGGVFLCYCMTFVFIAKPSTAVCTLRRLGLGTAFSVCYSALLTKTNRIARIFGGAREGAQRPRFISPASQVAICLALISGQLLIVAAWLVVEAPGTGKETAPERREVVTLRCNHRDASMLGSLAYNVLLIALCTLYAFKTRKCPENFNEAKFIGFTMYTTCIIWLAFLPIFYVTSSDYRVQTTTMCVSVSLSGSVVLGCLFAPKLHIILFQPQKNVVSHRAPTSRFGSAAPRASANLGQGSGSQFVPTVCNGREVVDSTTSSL

`CCc1cc2c(NCCCc3ccccc3)ncnc2s1` [Compound 75, 6-ethyl-N-(3-phenylpropyl)thieno[2,3-d]pyrimidin-4-amine] showed a melting point of 124.5 °C. Further, in data set [1], the “Activity: left-ward shift of agonist mGluR2 concentration-response curve” value (shortened to “Activity: left-ward shift”) is “++ (left-ward shift of agonist mGluR2 concentration-response curve [2- to 3.5-fold])”.

On to `CCCc1cc2c(NCCc3ccccc3)ncnc2s1` [Compound 79, N-phenethyl-6-propylthieno[2,3-d]pyrimidin-4-amine], for which the melting point was 110.5 °C. For the same molecule, the “Activity: left-ward shift” value in data set [1] is “+++ (left-ward shift of agonist mGluR2 concentration-response curve [>3.5-fold])”.

On to `CCCc1cc2c(NCCc3ccc(O)cc3)ncnc2s1` [Compound 82, 4-(2-(6-propylthieno[2,3-d]pyrimidin-4-ylamino)ethyl)phenol], for which the melting point was 123.5 °C. The “Activity: left-ward shift” value in data set [1] was “+++ (left-ward shift of agonist mGluR2 concentration-response curve [>3.5-fold])”.

Regarding `CCc1cc2c(NCCc3ccccc3)ccnc2s1` [Compound 96, 2-ethyl-N-phenethylthieno[2,3-b]pyridin-4-amine], the melting point came to 88 °C. Moreover, the “Activity: left-ward shift” value in data set [1] is “+++ (left-ward shift of agonist mGluR2 concentration-response curve [>3.5-fold])”.

As a reminder, the melting point is the temperature of the solid-liquid transition.

(Values after US20070275984A1, “Novel Thieno-Pyridine and Thieno-Pyrimidine Derivatives and Their Use as Positive Allosteric Modulators of Mglur2-Receptors” (JANSSEN PHARMACEUTICA N.V., priority 2004, published 2007).)
